These results are taken from PMC5844225 (Journal of medicinal chemistry, 2016).

Molecules are shown by their SMILES.

Test [1] deals with S. mansoni schistosomula. As to the kind of experiment: Automated ex vivo larval S. mansoni HCS assay. It is filed as cell-based, Schistosoma mansoni. Particulars: 48 h exposure.
Test [2] concerns SmTGR. Particulars: cited from earlier work.

As to `Cc1noc(/C=C/c2ccccn2)c1[N+](=O)[O-]` [Compound 3, 2-[2-(3-methyl-4-nitro-5-isoxazolyl)vinyl]pyridine], the schistosomula phenotype result in test [1] is given as “internal disruption of larvae”. Consider `O=S(=O)(Cc1ccccc1)c1nc2ccccc2s1` [Compound 4, 2-(benzylsulfonyl)-1,3-benzothiazole], for which the schistosomula phenotype entry in test [1] is on record as “internal disruption of larvae”. Turning to `Cc1c(-c2cnccn2)ssc1=S` [OLT, oltipraz], in test [2], the SmTGR inhibition mode entry was “noncompetitive inhibitor”.
